Data from patent US11911353B2, “Fatty acid synthase inhibitor and application thereof” (Jiangnan University, priority 2019, dated 2024).

Assays:
Type in all cases: cell-based
[1] = test system: prostate cancer cells PC-3; test: MTT tumor proliferation IC50, PC-3; conditions: 72 hours of incubation
Text: (§1) IC50 (half maximal inhibitory concentration) refers to the half inhibitory concentration of a measured antagonist. It can indicate that a certain concentration of a certain drug or substance (inhibitor) induces tumor cell apoptosis by 50%, and this concentration is referred to as 50% inhibitory concentration, namely, the corresponding concentration when the ratio of apoptotic cells to the total number of cells is equal to 50%. The IC50 value can be used to measure the ability of a drug to induce apoptosis, that is, the higher the inducing ability, the lower the value, which also can indicate the tolerance degree of a certain cell to a drug on the contrary. • (1) Cells in the logarithmic phase are collected, the concentration of a cell suspension is adjusted, it is appropriate to place 100 μl cells in each well of a 96-well plate, the cells are inoculated into the plate to adjust the density of to-be-detected cells to be 1000-10000 cells/well, and edge wells are filled with sterile PBS. • (2) The cells are incubated under 5% CO2 at 37° C., an original culture medium is discarded after complete cell adherence, 200 μl of 1 wt % FBS culture medium containing 0.01 μM, 0.1 μM, 1 μM, 5 μM and 10 μM compound I-1 or cerulenin is added into each well, and there are 6 wells run in duplicate. An equal volume of DMSO is added as a negative control. • (3) After 72 hours of incubation, the cells are photographed for state recording, an original culture medium is discarded, and 100 μl of serum-free culture medium containing 0.5 mg/ml MTT (3-(4,5-dimethylthiazole-2)-2,5-diphenyltetrazolium bromide, trade name thiazolyl blue) is added into each well. • (4) After 2-4 hours of incubation, an original culture medium is discarded, and 150 μl of dimethyl sulfoxide (DMSO) is added into each well and shaken at 300 rpm for 10 minutes to fully dissolve purple crystals. • (5) The absorbance of each well at OD570 nm is measured by an enzyme-linked immunodetection instrument, the absorbance at OD630 nm is used as a reference, dual-wavelength measurement is carried out, and survival rate results are calculated according to the following formula: Cell survival rate=(OD570−OD630)/(OD570 negative control−OD630 negative control);
(§2) wherein, OD570: OD570 value of each treatment group; OD630: OD630 value of each treatment group; OD570 control: OD570 value of the negative control group; OD630 control: OD630 value of the negative control group. • (6) The survival rate results are processed with graphpad 6.0 software according to the concentration gradient, the analysis mode is log (inhibitor) vs. Nonlinear regression (curve fit), and the calculated IC50 value is expressed as x+/−SD.
(§3) The FASN enzyme activity measurement method shown in Experimental Example 18 is used to detect the effects of different substances on FASN enzyme activity. The method shown in Experimental Example 19 is used to detect the effects of different substances on the proliferation of tumor cells, cerulenin is used as a control, and the inhibition rates (%) of different substances on FASN enzyme activity and inhibition rates (IC50 nM) on tumor proliferation are calculated.

[2] = test system: colon cancer cells HCT116; test: Fatty acid content and composition by GC/MS, HCT116 (FIG. 5); conditions: HCT116, 20 μM, 24 hours
Text: […]

[3] = test system: colon cancer cells HCT116; test: MTT tumor proliferation IC50, HCT116; conditions: Homo sapiens, HCT-116, 72 hours of incubation
Text: as §1, §2, §3

[4] = test system: prostate cancer cells PC-3; test: Fatty acid content and composition by GC/MS, PC-3 (FIG. 5); conditions: PC-3, 20 μM, 24 hours
Text: […]

[5] = test system: prostate cancer cells PC-3; test: Growth cycle of PC-3 cells, PI staining flow cytometry (FIG. 3); conditions: 10 μM treatment group, 24 hours; control group 10.34%
Text: […]

IC50 [1]: 9 nM
IC50 [3]: 13 nM
SMILES: O=C(CCCC(=O)Nc1ccc(Br)cc1)N/N=C/c1cc(Br)ccc1O [Compound I-1]
fatty acid content of 16:0 [2]: lower than that of the control group
total fatty acid content [2]: significantly lower than that of the control group
fatty acid content of 16:0 [4]: lower than that of the control group
total fatty acid content [4]: significantly lower than that of the control group
proportion of PC3 cells in S phase [5]: 19.10%
